Reference: patent publication US20250076312A1, “BIOMARKERS FOR THE TREATMENT OF INTERSTITIAL LUNG DISEASE” (Lung Therapeutics, LLC, priority 2021, published 2025)
Square brackets hold non-standard residues; d marks the D form. Ends that are not written are not given here.

Experiments:
Assay type in all cases: cell-based, human
LDH activity = tested on: LDH activity
Experimental: PCLSs were either untreated or treated with CSP-7 (10 μM or 100 μM), control peptide (CP, 100 μM), TGFβ (2 ng/mL), or pirfenidone (Pirf, 500 μM) and nintedanib (Nin, 100 nM). LDH activity was measured in the supernatant of IPF PCLSs on day 2 (left panel) or day 4 (right panel) following treatment. […] LDH activity was measured in the supernatant of IPF PCLSs on day 2 (left panel) or day 4 (right panel) following treatment.
LDH activity was also examined in the supernatants of IPF PCLSs either untreated (UT) or treated with CSP-7 (10 μM or 100 μM), control peptide (CP, 100 μM), TGFβ (2 ng/mL), or pirfenidone (Pirf, 500 μM) and nintedanib (Nin, 100 nM). LDH activity was measured using an LDH assay (Sigma-Aldrich, Cat No MAK066).

CXCL7 [1] = assay: CXCL7 ELISA in supernatant of IPF lung macrophages; settings: FIG. 14
From the text: (§1) Lung macrophages were either left untreated or treated with Var55. Each line represents a biological replicate of lung macrophages from an individual control subject (triangles) or an individual with IPF (circles).
(§2) Lung macrophages were collected from humans with IPF or healthy controls and cultured in vitro. Lung macrophages were either left untreated or treated with Var55. Following treatment, supernatants from the lung macrophage cultures were collected and analyzed for CXCL7 expression by ELISA.

CXCL7 [2] = assay: CXCL7 ELISA in supernatant of healthy control lung macrophages; settings: FIG. 14
From the text: as §1, §2

pSMAD2/3 [3] = assay: SMAD2/3 phosphorylation in IPF fibroblasts; settings: 10 μM, compared to 1% DMSO vehicle or DMEM controls, FIG. 7A
Experimental: IPF fibroblasts were treated with DMEM, 1% DMSO vehicle, CSP-7 (10 μM), Var55 (10 μM), pirfenidone (500 μM), or nintedanib (100 nM). SMAD2/3 phosphorylation was determined by Western blot 24 hours following treatment. […] IPF epithelial cells were treated with DMEM (control), Var55 (100 μM), nintedanib (100 nM), control peptide 1 (CP1, 100 μM), or control peptide 2 (CP2, 100 μM). SMAD2/3 phosphorylation was determined by Western blot 24 hours following treatment. Phosphorylated SMAD2/3 protein levels were determined by normalizing to total SMAD2/3 protein (FIG. 7A and FIG. 7B). Primary lung fibroblasts from IPF patients were treated with 1% DMSO vehicle, CSP-7 (10 μM), Var55 (10 μM), pirfenidone (500 μM), or nintedanib (100 nM). SMAD2/3 phosphorylation was measured in IPF fibroblasts by a multiplex assay or Western blot analysis and phosphorylated SMAD2/3 was normalized to total SMAD2/3 protein.

pSMAD2/3 [4] = assay: SMAD2/3 phosphorylation in IPF epithelial cells; settings: 100 μM, compared to DMEM control, FIG. 7B
Experimental: IPF fibroblasts were treated with DMEM, 1% DMSO vehicle, CSP-7 (10 μM), Var55 (10 μM), pirfenidone (500 μM), or nintedanib (100 nM). SMAD2/3 phosphorylation was determined by Western blot 24 hours following treatment. […] IPF epithelial cells were treated with DMEM (control), Var55 (100 μM), nintedanib (100 nM), control peptide 1 (CP1, 100 μM), or control peptide 2 (CP2, 100 μM). SMAD2/3 phosphorylation was determined by Western blot 24 hours following treatment. Phosphorylated SMAD2/3 protein levels were determined by normalizing to total SMAD2/3 protein (FIG. 7A and FIG. 7B).
Additional experiments were performed to determine whether phosphorylation of SMAD2/3 could be used as a biomarker associated with Var55 treatment. Epithelial cells from IPF patients were treated with DMEM (control), Var55 (100 μM), nintedanib (100 nM), control peptide 1 (CP1, 100 μM), or control peptide 2 (CP2, 100 μM). SMAD2/3 phosphorylation was measured in […] by a multiplex assay or Western blot analysis and phosphorylated SMAD2/3 was normalized to total SMAD2/3 protein.

Row | LDH activity in PCLS supernatant (LDH activity) | Substance | CXCL7 in the supernatant (CXCL7 [1]) | CXCL7 in the supernatant (CXCL7 [2]) | phosphorylation of SMAD2/3 normalized to total SMAD2/3 (pSMAD2/3 [3]) | phosphorylation of SMAD2/3 normalized to total SMAD2/3 (pSMAD2/3 [4])
1 | slight reduction | FTTFTVT [CSP-7, FTTFTVT] | – | – | – | –
2 | – | Ac-aaEGKASFTTFTVTKGSaa-NH2 (Ac-[dA][dA]EGKASFTTFTVTKGS[dA][dA]-NH2; SMILES CC(=O)N[C@H](C)C(=O)N[C@H](C)C(=O)N[C@@H](CCC(=O)O)C(=O)NCC(=O)N[C@@H](CCCCN)C(=O)N[C@@H](C)C(=O)N[C@@H](CO)C(=O)N[C@@H](Cc1ccccc1)C(=O)N[C@H](C(=O)N[C@H](C(=O)N[C@@H](Cc1ccccc1)C(=O)N[C@H](C(=O)N[C@H](C(=O)N[C@H](C(=O)N[C@@H](CCCCN)C(=O)NCC(=O)N[C@@H](CO)C(=O)N[C@H](C)C(=O)N[C@H](C)C(N)=O)[C@@H](C)O)C(C)C)[C@@H](C)O)[C@@H](C)O)[C@@H](C)O) [Var55] | significant reduction | significant reduction | no difference | reduced phosphorylation
